From patent publication US9278942B2, “Non-steroidal compounds as androgen receptor modulators” (FLX Discoveries Oy, priority 2011, dated 2016)
Like-named read-outs stand apart in the source and are kept apart here.

Legend:
[1] = target: T1, human AR (Homo sapiens, UniProt P10275); assay: Competitive AR binding assay against [3H]-R1881 in transiently transfected COS-1 cells; settings: compound 13.4 μM, [3H]-R1881 1.34 nM, complete inhibition equals 100%; for inhibition at 13.4 µM: read-out: Inhibition of [3H]-R1881 binding at 1.34 nM ± S.D.
T1 construct: expressed in transfected cells; host or cells: COS-1
T1 sequence (P10275 1-920): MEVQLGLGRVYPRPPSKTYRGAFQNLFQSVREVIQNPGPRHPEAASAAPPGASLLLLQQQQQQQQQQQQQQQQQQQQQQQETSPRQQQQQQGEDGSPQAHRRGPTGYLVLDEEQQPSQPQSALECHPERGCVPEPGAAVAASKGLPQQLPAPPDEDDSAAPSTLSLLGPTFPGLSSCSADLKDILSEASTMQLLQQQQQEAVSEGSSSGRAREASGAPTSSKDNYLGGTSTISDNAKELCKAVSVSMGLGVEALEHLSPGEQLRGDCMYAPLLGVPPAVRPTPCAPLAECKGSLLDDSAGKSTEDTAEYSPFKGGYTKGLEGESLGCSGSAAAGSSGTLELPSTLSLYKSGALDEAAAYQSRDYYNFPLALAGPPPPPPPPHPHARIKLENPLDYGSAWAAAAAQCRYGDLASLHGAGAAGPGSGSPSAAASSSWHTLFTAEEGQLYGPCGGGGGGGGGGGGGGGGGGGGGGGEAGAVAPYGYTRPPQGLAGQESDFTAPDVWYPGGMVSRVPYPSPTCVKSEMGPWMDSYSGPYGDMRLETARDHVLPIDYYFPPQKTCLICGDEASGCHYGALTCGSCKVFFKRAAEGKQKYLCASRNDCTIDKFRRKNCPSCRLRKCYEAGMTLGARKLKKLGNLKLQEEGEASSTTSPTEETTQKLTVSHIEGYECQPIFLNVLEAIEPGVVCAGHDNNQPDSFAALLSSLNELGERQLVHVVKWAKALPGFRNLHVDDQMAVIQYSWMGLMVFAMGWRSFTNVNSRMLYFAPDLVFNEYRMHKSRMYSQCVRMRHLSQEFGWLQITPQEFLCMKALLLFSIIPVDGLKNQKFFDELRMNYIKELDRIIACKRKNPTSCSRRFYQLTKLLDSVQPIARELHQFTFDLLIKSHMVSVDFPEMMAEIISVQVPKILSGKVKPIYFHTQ
Method in brief: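 COS-1 cells transfected 24 h with human AR vector, then after 36 h exposed 2 h at 37° C to compound at 10000-fold molar excess over 1.34 nM [3H]-R1881. Cell-bound radioactivity counted in triplicate; result given as % inhibition of labelled R1881 binding.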

[2] = target: T1, human AR; assay: AR antagonism assay: inhibition of transcriptional activation of AR (Probasin-luc reporter, COS-1 cells); format: cell-based; settings: compound 10.0 μM, relative luciferase response: 100% for testosterone (no antiandrogenic effect), 0% for complete antagonism; for remaining activity at 10 µM: COS-1, 18 h, read-out: AR antagonism against 100 nM testosterone ± S.D.
Procedure: Determination of the Antiandrogen Activity.
Testosterone was bought from Sigma Chemical Co. (St. Louis, Mo.) and hydroxyflutamide from Chemos GmbH. One day before transfection, COS-1 cells (from ATCC) were seeded into 1 ml of DMEM (Dulbecco's modified Eagle medium, Gibco) with 10% dextran-charcoal-treated fetal bovine serum and 0.25% (vol/vol) Penicillin-Streptomycin (Euroclone) at a density of 70×10^3 cells/well. After medium change to DMEM 2.5% FBS, the cells were transfected for 24 hours with 10 ng/well of human AR expression vector pSG5-hAR, 100 ng/well of reporter plasmid Probasin-luc, and 10 ng/well of control plasmid pCMV-β-gal by using the TransIT method (Micrus Bio TransIT LT1, Transfection Reagent). After the transfection, the cells received treatment of test compounds giving final concentration of 10 μM for each compound. In the antagonist test the wells were also treated with 100 nM final concentration of testosterone. After 18 hours, the cells were washed, lysed and assayed for luciferase and normalization for β-galactosidase activities and protein concentrations. The cells were washed with 100 μl of cold phosphate buffered saline (PBS) and lysed with 35 μl 1× Reporter lysis Buffer (Promega) and frozen (−70° C.) for 30 minutes. Cell lysates were placed in 1.5-ml propylene tubes and centrifuged at 13200×g for 5 minutes at room temperature. For β-galactosidase assay 10 μl of supernatant from each cell extract was transferred to a 96-well plate (96 well Elisa Microplates, PS, Microcon) and incubated for 10 minutes at 37° C. with 65 μl of reaction mixture consisting 0.76 μl 100×Mg-buffer, 12.5 μl ONPG (4 mg/ml), and 54.3 μl of sodium-phosphate buffer (pH 7). The reaction was stopped with treatment of 125 μl Na2CO3. For luciferase assay 10 μl of the supernatant was transferred to a 96-well plate (Greiner Microlon lumitrac 200) and treated with 30 μl of luciferase assay substrate solution (Promega Luciferase Assay System E1501). For the study of protein concentrations 5 μl of the supernatant was transferred to a 96-well plate (Elisa Microplates, PS, Microcon) and mixed with 200 μl of Bio-rad protein assay reagent. The luciferase activities were measured with Thermo Luminoscan Ascent scanner and the protein concentrations and β-galactosidase activities with Thermo Labsystem Multiscan Ex scanner. Also blank and control samples were measured. During the maintenance, transfection, and treatment with tested compounds the cells were incubated in humidified atmosphere with 5% carbon dioxide at 37° C.

Row | SMILES | AR antagonism against 100 nM testosterone ± S.D. [2] [%] | remaining activity at 10 µM [2] [%] | other results
1 | Fc1ccc(C2=NOC3CCCCCCC23)cc1C(F)(F)F (stereo not shown) [Example 43b, 3-(4-Fluoro-3-trifluoromethyl-phenyl)-3a,4,5,6,7,8,9,9a-octahydro-cycloocta[d]isoxazole] | 56.6 ± 1.4 |  | inhibition at 13.4 µM ([1]; Table 2): 76 ± 0.3%
2 | N#Cc1ccc(C2=NOC3CCCC23)c(C(F)(F)F)c1 (stereo not shown) [Example 86ab, 4-(4,5,6,6a-Tetrahydro-3aH-cyclopenta[d]isoxazol-3-yl)-3-trifluoromethyl-benzonitrile] |  | 29.3 ± 3.7 | inhibition at 13.4 µM ([1]; Table 3): 91.7 ± 1.7%
3 | Fc1ccc(C2=NOC3CCCCCC23)c(C(F)(F)F)c1 (stereo not shown) [Example 40b, 3-(4-Fluoro-2-trifluoromethyl-phenyl)-4,5,6,7,8,8a-hexahydro-3aH-cyclohepta[d]isoxazole] | 15.6 ± 0.8 |  | Inhibition of [3H]-R1881 binding at 1.34 nM ± S.D. ([1]; Table 2): 92.2 ± 0.7%
4 | O=[N+]([O-])c1ccc(C2=NOC3CCCCCCC23)cc1C(F)(F)F (stereo not shown) [Example 45ab, 3-(4-Nitro-3-trifluoromethyl-phenyl)-3a,4,5,6,7,8,9,9a-octahydro-cycloocta[d]isoxazole] |  | 27.8 ± 1 | inhibition at 13.4 µM ([1]; Table 3): 85.7 ± 3.8%
5 | O=[N+]([O-])c1ccc(C2=NOC3CCCC23)c(C(F)(F)F)c1 (stereo not shown) [Example 22ab, 3-(4-Nitro-2-trifluoromethyl-phenyl)-4,5,6,6a-tetrahydro-3aH-cyclopenta[d]isoxazole] |  | 21.8 ± 4.1 | inhibition at 13.4 µM ([1]; Table 3): 89.3 ± 4.7%
6 | Fc1ccc(C2=NOC3CCCCC23)cc1C(F)(F)F (stereo not shown) [Example 35ab, 3-(4-Fluoro-3-trifluoromethyl-phenyl)-3a,4,5,6,7,7a-hexahydro-benzo-[d]-isoxazole] |  | 53.4 ± 5.4 | inhibition at 13.4 µM ([1]; Table 2): 88.5 ± 4.2%
7 | N#Cc1ccc(C2=NOC3CCCC23)cc1C(F)(F)F (single isomer, unassigned) [Example 85b, 4-(4,5,6,6a-Tetrahydro-3aH-cyclopenta[d]isoxazol-3-yl)-2-trifluoromethyl-benzonitrile] | 18.9 ± 0.5 |  | Inhibition of [3H]-R1881 binding at 1.34 nM ± S.D. ([1]; Table 2): 91.8 ± 1.7%
8 | Clc1ccc(C2=NOC3CCCCC23)cc1 (single isomer, unassigned) [Example 32b, 3-(4-Chloro-phenyl)-3a,4,5,6,7,7a-hexahydro-benzo[d]-isoxazole] | 91.4 ± 7.7 |  | Inhibition of [3H]-R1881 binding at 1.34 nM ± S.D. ([1]; Table 1): 0%
9 | Fc1ccc(C2=NOC3CCCC23)cc1C(F)(F)F (stereo not shown) [Example 19ab, 3-(4-Fluoro-3-trifluoromethyl-phenyl)-4,5,6,6a-tetrahydro-3aH-cyclopenta[d]-isoxazole] |  | 54.6 ± 2.3 | inhibition at 13.4 µM ([1]; Table 2): 84.6 ± 4.9%
10 | N#Cc1ccc(C2=NOC3CCCCC23)c(C(F)(F)F)c1 (stereo not shown) [Example 89a, 4-(3a,4,5,6,7,7a-Hexahydro-benzo[d]isoxazol-3-yl)-3-trifluoromethyl benzonitrile] |  | 27.5 ± 4.1 | inhibition at 13.4 µM ([1]; Table 2): 78.8 ± 0.6%
11 | N#Cc1ccc(C2=NOC3CCCCCC23)c(C(F)(F)F)c1 (stereo not shown) [Example 91a, 4-(4,5,6,7,8,8a-Hexahydro-3aH-cyclohepta[d]isoxazol-3-yl)-3-trifluoromethyl benzonitrile] |  | 29.8 ± 3.6 | inhibition at 13.4 µM ([1]; Table 2): 85.4 ± 1.5%
12 | N#Cc1ccc(C2=NOC3CCCCCC23)c(C(F)(F)F)c1 (stereo not shown) [Example 91b, 4-(4,5,6,7,8,8a-Hexahydro-3aH-cyclohepta[d]isoxazol-3-yl)-3-trifluoromethyl benzonitrile] | 27.2 ± 4.8 |  | Inhibition of [3H]-R1881 binding at 1.34 nM ± S.D. ([1]; Table 2): 87.4 ± 2.7%
13 | O=[N+]([O-])c1ccc(C2=NOC3CCCC23)cc1C(F)(F)F (single isomer, unassigned) [Example 21b, 3-(4-Nitro-3-trifluoromethyl-phenyl)-4,5,6,6a-tetrahydro-3aH-cyclopenta[d]isoxazole] | 22.9 ± 4.9 |  | Inhibition of [3H]-R1881 binding at 1.34 nM ± S.D. ([1]; Table 3): 90.9 ± 0.9%
14 | N#Cc1cccc(C2=NOC3CCCCC23)c1C(F)(F)F (single isomer, unassigned) [Example 94a, 3-(3a,4,5,6,7,7a-Hexahydro-benzo[d]isoxazol-3-yl)-2-trifluoromethyl-benzonitrile] | 17.8 ± 3.9 |  | inhibition at 13.4 µM ([1]; Table 3): 97.4 ± 0.4%
15 | Fc1ccc(C2=NOC3CCCCC23)c(C(F)(F)F)c1 (stereo not shown) [Example 36b, 3-(4-Fluoro-2-trifluoromethyl-phenyl)-3a,4,5,6,7,7a-hexahydro-benzo[d]-isoxazole] | 30.0 ± 6.1 |  | Inhibition of [3H]-R1881 binding at 1.34 nM ± S.D. ([1]; Table 2): 87.7 ± 3.0%
16 | c1ccc2c(C3=NOC4CCCCC34)cccc2c1 (single isomer, unassigned) [Example 33b, 3-Naphthalen-1-yl-3a,4,5,6,7,7a-hexahydro-benzo[d]-isoxazole] | 100 |  | Inhibition of [3H]-R1881 binding at 1.34 nM ± S.D. ([1]; Table 1): 56.9 ± 4.4%
17 | N#Cc1ccc(C2=NOC3CCCCC23)c(C(F)(F)F)c1 (stereo not shown) [Example 89b, 4-(3a,4,5,6,7,7a-Hexahydro-benzo[d]isoxazol-3-yl)-3-trifluoromethyl benzonitrile] | 20.3 ± 1.7 |  | Inhibition of [3H]-R1881 binding at 1.34 nM ± S.D. ([1]; Table 2): 83.6 ± 0.9%
18 | N#Cc1ccc(C2=NOC3CCCCCCC23)c(C(F)(F)F)c1 (single isomer, unassigned) [Example 93b, 4-(3a,4,5,6,7,8,9,9a-Octahydro-cycloocta[d]isoxazol-3-yl)-3-trifluoromethyl-benzonitrile] | 65.5 ± 9.0 |  | Inhibition of [3H]-R1881 binding at 1.34 nM ± S.D. ([1]; Table 3): 76.0 ± 4.8%
19 | N#Cc1cccc(C2=NOC3CCCCCC23)c1C(F)(F)F (stereo not shown) [Example 95a, 3-(4,5,6,7,8,8a-Hexahydro-3aH-cyclohepta[d]isoxazol-3-yl)-2-trifluoromethyl-benzonitrile] |  | 14.4 ± 1.9 | inhibition at 13.4 µM ([1]; Table 3): 96.2 ± 0.8%
20 | O=[N+]([O-])c1ccc(C2=NOC3CCCCC23)cc1C(F)(F)F (stereo not shown) [Example 37ab, 3-(4-Nitro-3-trifluoromethyl-phenyl)-3a,4,5,6,7,7a-hexahydro-benzo-[d]-isoxazole] |  | 10.6 ± 1.6 | inhibition at 13.4 µM ([1]; Table 1): 93.5 ± 0.9%
